Experiments:
[1] = system: fully base paired RNA; assay: MST binding to fully base paired control RNA; settings: microscale thermophoresis
Description: (§1) Binding Affinity Measurements: Microscale Thermophoresis (MST). Binding affinity measurements were performed on a Monolith NT.115 MST system (NanoTemper Technologies) with Cy5-labeled oligonucleotides. Briefly, Cy5-labeled RNA (5 nM) was prepared in 1× Folding Buffer and folded by heating at 60° C. for 5 min and then slowly cooling to room temperature. After cooling, Tween-20 was added to a final concentration of 0.1% (v/v). Compound solutions were prepared separately in 30 μL of 1× Assay Buffer at a final concentration of 5 μM (1% (v/v) DMSO), followed by 1:1 serial dilutions in 1× Assay Buffer. RNA and compound solutions were then mixed 1:1 by volume.
(§2) Samples were incubated for 20 min at room temperature and then loaded into premium capillaries (NanoTemper Technologies, Cat #MO-K025). The following parameters were used for MST measurement: 5-20% LED power (adjusted to keep fluorescence intensity between 8000 and 18000), 80% MST power, Laser-On time=30 s, and Laser-Off time=5 s. The resulting data were analyzed by calculating the change in thermophoresis as a function of compound concentration and fitted by Equation (3) in MST analysis software (NanoTemper Technologies) to yield the dissociation constant (Kd):
(§3) where F is the concentration of fluorescently labeled RNA; unbound and bound refer to the thermophoresis signal at completely unbound and bound state of RNA, respectively; c is the concentration of the compound; f (c) is the thermophoresis signal at compound concentration of c; Kd is the dissociation constant.

[2] = biological target: SNCA IRE; assay: MST binding affinity for SNCA IRE (A bulge model RNA); settings: microscale thermophoresis; Cy5-labeled RNA
Description: as §1, §2, §3

[3] = system: α-synuclein; assay: α-synuclein protein in iPSC-induced dopaminergic neurons; format: cell-based, human
Description: Dopamine neuron induction. For dopamine neuronal induction,^15,16 the dual-SMAD inhibition method^17 was used for floor plate (FP)-based midbrain dopamine (DA) neuron induction with modifications. Prior to differentiation, Matrigel matrix (BD) was thawed at 4° C. overnight or on ice until it is dissolved. Matrigel coated 6-well plates were prepared according to manufacturer's instructions and incubated at 37° C. for at least 1 h before use. iPSCs were dissociated with Accutase (STEMCELL Technologies) and plated (3.5×10^5-4×10^5 cells per cm^2) into a new Matrigel coated plate and grown in mTeSR medium (STEMCELL Technologies) with StemBeads FGF2 (StemCultures) and ROCK inhibitor Y27632 (5 μM, Tocris). After 24 to 48 h, when the cells reached 100% confluency, the differentiation protocol was initiated by feeding the cells with DMEM containing 15% KnockOut Serum Replacement (KSR, Gibco), 2 mM L-glutamine (L-Glut) and 10 μM β-mercaptoethanol for 11 days. […]
ELISA (Enzyme-Linked Immunosorbent Assay). […] After compound treatment, total protein was extracted and quantified as described in Western blotting. The concentration of α-synuclein protein was measured by using Human Alpha-synuclein ELISA Kit (Abcam, ab260052) per the manufacturer's recommendations.

[4] = system: SH-SY5Y cells; assay: proteome-wide analysis in SH-SY5Y cells; format: cell-based, human; settings: for number of proteins downregulated / number of proteins upregulated / protein expression of seven genes enriched by Syn-CLIP (global proteomics) / number of proteins affected / percent of proteins affected: 2 μM; for number of proteins affected: of 3,436 (Syn-RiboTAC) or 2,813 (Synucleozid-2.0) proteins detected; for percent of proteins affected: of proteins detected
Description: Treatment of SH-SY5Y cells with Syn-RiboTAC for proteome-wide studies. SH-SY5Y cells were seeded in 6-well plates (~60% confluency) and treated with vehicle (0.1% (v/v) DMSO) or Syn-RiboTAC as described above. After 48 h, the cells were gently washed twice with 1× DPBS, harvested by scraping, and resuspended in 1× DPBS. They were then lysed by sonication. Protein concentrations were determined by using BCA Protein Assay Kit (Pierce Biotechnology). Reduction of […]-synuclein protein levels by Syn-RiboTAC were confirmed by Western blotting as described above. Protein samples were then denatured in 50 mM NH4HCO3, pH 8, containing 6 M urea and then reduced with 10 mM TCEP (tris(2-carboxyethyl)phosphine hydrochloride) for 30 min. The proteins were then alkylated with 25 mM iodoacetamide for 30 min in dark. Samples were diluted to 2 M urea containing 50 mM NH4HCO3, pH 8, and digested with trypsin (Thermo Scientific, 1.5 μL of 0.5 μg/μL) containing 1 mM CaCl2) (100× stock in water) at 37° C. for 12 h. Samples were acidified by adding acetic acid to a final concentration of 5% (v/v), desalted by using a self-packed C18 spin column, and dried. Samples obtained were analyzed by LC-MS/MS(as described below), and the MS data were processed with MaxQuant (as described below).
LC-MS/MS analysis and MaxQuant analysis. Peptides obtained above were resuspended in water containing 0.1% (v/v) formic acid and analyzed by using EASY-nLC 1200 nano-UHPLC coupled to Q Exactive HF-X Quadrupole-Orbitrap mass spectrometer (Thermo Scientific). Parameters for the chromatography column and elution methods were the same as previously described.^4 MS data were analyzed by using MaxQuant 14 (V1.6.1.0) and then searched against the human proteome (Uniprot) and a common list of contaminants (included in MaxQuant). The false discovery rate (FDR) for proteins, peptides and sites identification was set at 1%. Parameters were the same as described previously.^4

Structure (SMILES)	binding towards the fully base paired RNA [1]	Kd [2] [µM]	decrease of α-synuclein protein levels in dopaminergic neurons ([3]; 2 μM, PD patient-derived (SNCA triplication))	enhancement in selectivity on the proteome vs Synucleozid 1.0 [4]	number of proteins downregulated [4]	number of proteins upregulated [4]	protein expression of seven genes enriched by Syn-CLIP (global proteomics) [4]	number of proteins affected [4]	percent of proteins affected [4] [%]	number of changed proteins that also showed the corresponding change at the transcript level ([4]; of 194 changed proteins)	percent of changed proteins with corresponding transcript change ([4]; of 194 changed proteins) [%]	α-synuclein protein levels in dopaminergic neurons (in words) ([3]; ELISA, FIG. 3D)
CCOC(=O)C1=C(Nc2ccccc2)S/C(=C\c2ccc(OCCOCCOCCOCCNC(=O)CCCOc3ccc(-n4c(SCC(=O)Nc5ccc6cn[nH]c6c5)nnc4-c4ccncc4)cc3)c(O)c2)C1=O [Syn-RiboTAC]	no saturable binding	0.103 ± 0.01	~ 50%	~ 16 -fold	114	80	not significantly altered	194	0.56	86	44	
O=C(CSc1nnc(-c2ccncc2)n1-c1ccc(Br)cc1)Nc1ccc2cn[nH]c2c1 [Synucleozid-2.0]	no saturable binding	0.066 ± 0.004			55	95	not significantly altered	150	0.53			decreased α-synuclein protein levels

Reference: patent US20260325655A1, “DECREASING THE INTRINSICALLY DISORDERED PROTEIN ALPHA-SYNUCLEIN’S LEVELS BY TARGETING ITS STRUCTURED MRNA WITH A RIBONUCLEASE TARGETING CHIMERA” (University of Florida Research Foundation, Incorporated, priority 2023, published 2026)
